Laboratory results as given in USRE39096E1, “Treatment of skin disorders” (Hadasit Medical Research Services and Development Company …, priority 1997, dated 2006).
Values joined by “and” are separate entries in the source; they are usually repeats but may differ in a detail not shown here. Equal values may be shown once. Read-outs that look alike come from different tables or passages of the source.

Legend:
keloid-derived cells = assay: Collagen synthesis in keloid-derived cells ([3H]proline incorporation, collagenase digestion); format: cell-based, human; conditions: 24 hours incubation, FIG. 2
Experimental: A keloid, which had arisen in response to the piercing of the ear for insertion of an earring, was removed from the ear lobe of a person. The keloid tissue was sectioned so that histological studies could be performed. Briefly, the tissue samples were collected into phosphate-buffered saline (PBS) and fixed overnight in 4% paraformaldehyde in PBS at 4° C. Serial 5 um sections were prepared after the samples had been dehydrated in graded ethanol solutions, cleared in chloroform and embedded in Paraplast. Differential staining of collagenous and non-collagenous proteins was performed with 0.1% Sirius red and 0.1% fast green as a counter-stain in picric acid. This procedure stains collagen red [Gascon-Barre, M., et al., J. Histochem. Cytochem., Vol 37, p. 377-381, 1989].
The keloid was removed as described in Example 1 above. The keloid-derived cells were incubated with and without Halofuginone for 24 hours in 0.5 ml glutamine-free DMEM containing 5% FCS (Fetal Calf Serum), ascorbic acid (50 μg/ml), B-aminopropionitrile (50 μg/ml) and 2 μCi of [^3H]proline. At the end of incubation, the medium was decanted and the cells were incubated with or without collagenase for 18 hours, followed by precipitation of proteins by the addition of TCA (trichloroacetic acid). […]

[1] = system: bovine corneal endothelial cells; assay: Sulfate incorporation into ECM of cultured endothelial cells; format: cell-based; conditions: FIG. 3
Excerpt: (§1) As noted above, skin cell hyperproliferation is enabled by the deposition of ECM components. The following examples illustrate the ability of Halofuginone to inhibit such deposition of ECM components, further supporting the use of Halofuginone as a treatment for psoriasis. These examples illustrate the unexpected finding that Halofuginone completely abolishes deposition of all ECM components, and not just collagen, thereby preventing cell proliferation which is enabled by the formation of ECM. Cultures of bovine corneal endothelial cells were established from steer eyes and maintained as previously described [D. Gospodarowicz, et al., Exp. Eye Res., No. 25, pp. 75-99 (1977)]. Cells were cultured at 37° C. in 10% CO2 humidified incubators and the experiments were performed with early (3-8) cell passages.
(§2) For preparation of sulfate-labelled ECM (extra-cellular matrix), corneal endothelial cells were seeded into Swell plates at a confluent density forming, within 4-6 h, a contact inhibited cell monolayer composed of closely apposed, and growth arrested cells. […] To determine the total amount of sulfate labeled material, the ECM was digested with trypsin (25 μg/ml 24 h, 37° C.) and the solubilized material counted in a β-counter.

[2] = system: bovine corneal endothelial cells; assay: Viability and morphology of confluent corneal endothelial cell monolayer; format: cell-based; conditions: growth arrested monolayer
Excerpt: as §1, §2

[3] = system: bovine corneal endothelial cells; assay: Incorporation of sulfate, proline, lysine and glycine into ECM of bovine corneal endothelial cells; format: cell-based; conditions: eight days after seeding
Experimental: Corneal endothelial cells were seeded at a confluent density and grown as described in Example 3 above. The cells were cultured with or without Halofuginone in the presence of either Na2^35SO4 (FIG. 4A), ^3H-proline (FIG. 4B), ^14C-lysine (FIG. 4C) or ^14C-glycine (FIG. 4D). Eight days after seeding, the cell layer was dissolved substantially as described in Example 3 above. The underlying ECM was then either trypsinized to determine the effect of Halofuginone on incorporation of labeled material into total protein, substantially as described in Example 3 above, or subjected to sequential digestions with collagenase and trypsin to evaluate the effect of Halofuginone on both collagenase-digestible proteins (CDP) and non-collagenase digestible proteins (NCDP).

Rat mesengial cells = assay: Sulfate and glycine incorporation into rat mesengial cell ECM; format: cell-based; conditions: for inhibition at 0.05 µg/mL / inhibition at 0.2 µg/mL: Rattus norvegicus; for inhibition at 0.05 µg/mL: 50 ng/ml Halofuginone; for inhibition at 0.2 µg/mL: 200 ng/ml Halofuginone
Experimental: Rat […] grown to confluency, 24 hours after seeding. The cells were then cultured with or without Halofuginone in the presence of either Na2^35SO4 (FIGS. 5A and 5B) or ^14C-glycine (FIGS. 5C and 5D). Eight days after seeding, the cell layer was dissolved to expose the underlying ECM, washed and digested with collagenase to determine the effect of Halofuginone on CDP proteins, as shown in FIGS. 5A and 5C. The remaining material was digested with trypsin and subjected to β-scintillation counting to determine the effect of Halofuginone on NCDP proteins, as shown in FIGS 5B and 5D.

rats = assay: Post-surgical abdominal adhesion formation in rats, Halofuginone in diet as pretreatment; format: in vivo, rat
Experimental: The experimental method was as follows. Halofuginone was administered in the diet of two groups of rats at a concentration of 5 mg/kg dry feed for 4 days before surgery, as a pretreatment. Two other groups of rats were fed a normal diet and served as control groups. One of the groups of rats fed Halofuginone and one control group then underwent surgery, which was performed as follows. First, the abdomen of the rats was shaved and prepared with iodine and alcohol. The abdominal cavity was entered through a mid-line incision. The small intestine was scraped from the duodenum down to from about 9 to about 10 cm from the cecum, until capillary bleeding occurred. To avoid drying, Hartman's solution at about 37 C. was occasionally dripped on the intestine. After replacement of the intestine into the abdominal cavity, the abdomen was closed in two layers with continuous 00 chromic catgut suture.
In those rats receiving the drug, Halofuginone treatment was continued for 21 days following surgery. At the end of 21 days, the rats were weighed and the number and severity of adhesions were determined according to a double-blind procedure, in which adhesions were classified according to the following grading: 0=no adhesions; I=a thin, filmy, easily separated adhesion; II=several thin adhesions; III=a thick, broad adhesion and IV=several thick adhesions. Clearly, 0 is the least severe and IV is the most severe grade.

Q: How did the “production of collagen (collagenase-digestible [3H]proline-labelled proteins)” value (keloid-derived cells) turn out when O=C(CC1NCCCC1O)Cn1cnc2cc(Br)c(Cl)cc2c1=O (centres unmarked) [Halofuginone] was run?
A: inhibited the production of collagen

Q: And the “production of non-collagenase digestible proteins” value (keloid-derived cells)?
A: not of non-collagenase digestible proteins

Q: What about the “inhibition of sulfate incorporation into ECM” value ([1]; 1 μg/ml Halofuginone) of the same molecule?
A: almost complete inhibition

Q: What about the inhibition at 0.2 µg/mL ([1]; Bos taurus, Endothelial cell, 0.2 μg/ml Halofuginone) of the same molecule?
A: 50%

Q: What about the “concentration up to which cells remained viable and retained normal monolayer configuration and morphological appearance” value [2] of the same molecule?
A: ≤ 2 μg/ml

Q: What about the “incorporation of proline into ECM” value ([3]; 3H-proline, both CDP and NCDP, FIG. 4B) of the same molecule?
A: inhibited

Q: What about the “incorporation of glycine into ECM” value ([3]; 14C-glycine, both CDP and NCDP, FIG. 4D) of the same molecule?
A: inhibited

Q: What about the “incorporation of lysine into ECM” value ([3]; 14C-lysine, both CDP and NCDP, FIG. 4C) of the same molecule?
A: inhibited

Q: And the “incorporation of sulfate into ECM” value ([3]; Na2 35SO4, both CDP and NCDP, FIG. 4A)?
A: inhibited

Q: And the “microscopic examination of denuded culture dishes (ECM layer)” value (Rat mesengial cells; ECM produced in the presence of Halofuginone)?
A: thin or non-existant layer of ECM

Q: And the inhibition at 0.05 µg/mL (Rat mesengial cells; collagenase-digestible proteins, read-out: inhibition of glycine incorporation, CDP proteins)?
A: ~80%

Q: What about the inhibition at 0.05 µg/mL (Rat mesengial cells; non-collagenase digestible proteins, read-out: inhibition of glycine incorporation, NCDP proteins) of the same molecule?
A: ~80%

Q: What about the inhibition at 0.2 µg/mL (Rat mesengial cells; collagenase-digestible proteins, read-out: inhibition of sulfate incorporation, CDP proteins) of the same molecule?
A: ~30%

Q: What about the inhibition at 0.2 µg/mL (Rat mesengial cells; non-collagenase digestible proteins, read-out: inhibition of sulfate incorporation, NCDP proteins) of the same molecule?
A: ~70%

Q: What about the “Adhesion Score” value (rats; individual rats, Group Number 2 (taken as surgery + Halofuginone 5 mg/kg dry feed, 4 days before and 21 days after surgery)) of the same molecule?
A: 0-1 (3×) and 0 (3×) and 1 (2×) and 1-2 (2×)

Q: What about the “adhesions in rats without surgical intervention” value (rats; no surgery, Halofuginone in diet) of the same molecule?
A: None of the rats without surgical intervention

Q: And the post-surgical adhesion formation (rats; rats with surgery, Halofuginone in diet 5 mg/kg dry feed)?
A: able to inhibit post-surgical adhesion formation
